This is an account of results in patent publication US8981094B2, “Piperidine/piperazine derivatives” (Janssen Pharmaceutica N.V., priority 2007, dated 2015).

For the assay, the target named is T1, human DGAT1 (Homo sapiens, UniProt O75907).
T1 construct: FLAG (N); made in house; host or cells: SF9 insect cells (pFastBac baculovirus); total cell membranes
T1 sequence (O75907 1-488): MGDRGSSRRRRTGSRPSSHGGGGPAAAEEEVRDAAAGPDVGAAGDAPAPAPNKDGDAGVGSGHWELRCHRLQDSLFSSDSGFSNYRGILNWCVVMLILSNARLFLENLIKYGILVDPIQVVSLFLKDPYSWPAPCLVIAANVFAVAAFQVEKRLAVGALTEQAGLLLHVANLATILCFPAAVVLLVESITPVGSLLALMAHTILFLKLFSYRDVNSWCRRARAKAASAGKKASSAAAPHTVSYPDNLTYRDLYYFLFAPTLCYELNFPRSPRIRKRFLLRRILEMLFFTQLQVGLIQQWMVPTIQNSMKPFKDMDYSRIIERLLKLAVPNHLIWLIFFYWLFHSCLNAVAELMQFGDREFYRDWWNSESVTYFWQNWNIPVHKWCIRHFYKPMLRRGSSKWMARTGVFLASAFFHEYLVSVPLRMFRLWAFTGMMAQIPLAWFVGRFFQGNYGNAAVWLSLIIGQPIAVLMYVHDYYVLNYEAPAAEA
In words: Inhibition of DGAT1 activity, FlashPlate assay with DGAT1 membrane preparations and substrate micelles. It counts as biochemical. The note with it: pIC50 = -logIC50, IC50 values expressed in M. The text has this:
A) Measurement of Inhibition of DGAT1 Activity by the Present Compounds
The inhibiting activity of the present compounds on DGAT1 activity was screened in a single well procedure assay using DGAT1 comprising membrane preparations and DGAT1 substrate comprising micelles and determining formed radio-active triacylglycerol coming in close proximity of a flashplate surface by radio luminescence.
Said assay is described in full detail in WO2006/067071, the content of which is incorporated herein by reference.
By DGAT1 activity is meant the transfer of coenzyme A activated fatty acids to the 3-position of 1,2-diacylglycerols, thus forming a triglyceride molecule, by enzyme DGAT1.
human DGAT1 (NM012079.2) was cloned into the pFastBac vector, containing translation start, a FLAG-tag at the N-terminus as described in literature and a viral Kozak sequence (AAX) preceding the ATG to improve expression in insect cells. Expression was done as described in literature (Cases, S., Smith, S. J., Zheng, Y., Myers H. M., Lear, S. R., Sande, E., Novak, S., Collins, C., Welch, C. B., Lusis, A. J., Erickson, S. K. and Farese, R. V. (1998) Proc. Natl. Acad. Sci. USA 95, 13018-13023.) using SF9 cells.
72 h transfected SF9 cells were collected by centrifugation (13000 rpm-15 min-4° C.) and lysed in 2×500 ml lysisbuffer (0.1M Sucrose, 50 mM KCl, 40 mM KH2PO4, 30 mM EDTA pH 7.2. Cells were homogenized by cell disruptor. After centrifugation 1380 rpm-15 min-4° C. (SN discarded), pellet was resuspended in 500 ml lysisbuffer and total cell membranes collected by ultracentrifugation at 34000 rpm(100 000 g) for 60 min (4° C.). The collected membranes were resuspended in lysis buffer, divided in aliquots and stored with 10% glycerol at −80° C. until use.
Add 1 ml dioleoyl-sn-glycerol (10 mg/ml) to 10 ml of L-α-phosphatidylcholine (1 mg/ml) and 10 ml of L-α-phosphatidyl-L-serine (1 mg/ml) in a thick glass recipient. Evaporate under nitrogen and put on ice for 15 minutes. Reconstitute in 10 ml Tris/HCl (10 mM, pH 7.4) by sonication on ice. The sonification process consists of sonification cycles of 10 seconds in the sonification bath followed by 10 seconds cool down on ice and repeating this sonification cycle till a homogeneous solution is obtained (takes about 15 minutes). The thus obtained micelles are stored at −20° C. till later use and contain DAG at a final concentration of 1.61 mM.
c) Substrate mix (for 1 384 well plate=3840 μl) • 612 μl micelles stock (51 μM final) • 16.6 μl oleoylCoA 9.7 mM • 23 μl [^3H]-oleoylCoA (49 Ci/mmol, 500 μCi/ml) • 3188.4 μl Tris pH 7.4, 10 mM
d) Enzyme mix (for 1 384 well plate=3520 μl) (5 μg/ml) • Add 11.73 μl of DGAT membrane stock (1500 μg/ml stock) to 3508 μl assay buffer.
e) Stop mix (for 1 384 well plate=7.68 ml) (250 mM) • Add 384 μl of N-ethylmaleimide (5M) to 3.456 ml DMSO 100%, and further dilute 3.84 ml of said solution with 3.84 ml DMSO 10%.
DGAT activity in membrane preparations was assayed in 50 mM Tris-HCl (pH 7.4), 150 mM MgCl2, 1 mM EDTA and 0.2% BSA, containing 50 μM DAG, 32 μg/ml PC/PS and 8.4 μM [^3H]-oleoylCoA (at a specific activity of 30 nCi/well) in a final volume of 50 μl in 384-well format using the red shifted Basic Image FlashPlate™ (Perkin Elmer Cat.No. SMP400).
In detail, 10 μl enzyme mix and 10 μl substrate mix were added to 30 μl of assay buffer, optionally in the presence of 1 μl DMSO (blank and controls) or 1 μl of the compound to be tested. This reaction mixture was incubated for 120 minutes at 37° C. and the enzymatic reaction stopped by adding 20 μl of the stop mix. The plates were sealed and the vesicles allowed to settle overnight at room temperature. Plates were centrifuged for 5 minutes at 1500 rpm and measured in Leadseeker. […]

With `C=CCC(N)C(=O)Nc1ccc(C2CCN(C(=O)Nc3c(Cl)cccc3Cl)CC2)cc1` (centres unmarked) [Compound 146], it took 10500 nM to reach half-maximal inhibition (IC50).

`CC(N)C(=O)Nc1ccc(C2CCN(C(=O)Nc3c(Cl)cccc3Cl)CC2)cc1` (centres unmarked) [Compound 148] had a half-inhibitory concentration (IC50) of 7080 nM. As to `O=C(CC1CCCN1)Nc1ccc(C2CCN(C(=O)Nc3c(Cl)cccc3Cl)CC2)cc1` (centres unmarked) [Compound 149], the IC50 was 7240 nM. Molecule `NCCC(=O)Nc1ccc(C2CCN(C(=O)Nc3c(Cl)cccc3Cl)CC2)cc1` [Compound 150] showed a half-maximal inhibitory concentration (IC50) of 6920 nM.

`CCC(N)C(=O)Nc1ccc(C2CCN(C(=O)Nc3c(Cl)cccc3Cl)CC2)cc1` (centres unmarked) [Compound 151] showed an IC50 of 6920 nM. Take `O=C(CC(c1ccc(Cl)cc1)c1ccc(Cl)cc1)c1ccc(N2CCN(C(=O)Nc3c(Cl)cccc3Cl)CC2)cc1` [Compound 162]: the half-maximal inhibitory concentration (IC50) is 112 nM. For `COCCOCC(=O)N(C)CC(=O)Nc1ccc(N2CCN(C(=O)Nc3c(Cl)cccc3Cl)CC2)cc1` [Compound 163], 1410 nM corresponded to half-maximal inhibition (IC50). The molecule `CN(CC(=O)Nc1ccc(N2CCN(C(=O)Nc3c(Cl)cccc3Cl)CC2)cc1)C(=O)CC(C)(C)C` [Compound 167] showed an IC50 of 22.4 nM. The molecule `CC(C)CC(=O)N(C)CC(=O)Nc1ccc(N2CCN(C(=O)Nc3c(Cl)cccc3Cl)CC2)cc1` [Compound 168] showed an IC50 of 30.9 nM.

Regarding `CCCC(=O)N(C)CC(=O)Nc1ccc(N2CCN(C(=O)Nc3c(Cl)cccc3Cl)CC2)cc1` [Compound 169], the midpoint of inhibition, the IC50, lay at 53.7 nM. On to `CCC(=O)N(C)CC(=O)Nc1ccc(N2CCN(C(=O)Nc3c(Cl)cccc3Cl)CC2)cc1` [Compound 170], for which the IC50 is 245 nM. In turn, `COc1cc(Cl)c(NC(=O)N2CCN(c3ccc(NC(=O)CCCc4ccccc4)cc3)CC2)c(Cl)c1` [Compound 190] showed a half-inhibitory concentration (IC50) of 6.17 nM. As for `COc1ccc(CC(=O)Nc2ccc(N3CCN(C(=O)Nc4c(Cl)cc(OC)cc4OC)CC3)cc2)cc1` [Compound 191], the concentration for half-maximal inhibition (IC50) was 44.7 nM. In turn, `O=C(CCCc1ccccn1)Nc1ccc(N2CCN(C(=O)Nc3c(Cl)cccc3Cl)CC2)cc1` [Compound 195] had a half-maximal inhibitory concentration (IC50) of 123 nM. The figure for `CC(C)(C)OC(=O)NC(CO)C(=O)Nc1ccc(C2CCN(C(=O)Nc3c(Cl)cccc3Cl)CC2)cc1` (centres unmarked) [Compound 204] is 1910 nM. The figure for `CCC(NC(=O)OC(C)(C)C)C(=O)Nc1ccc(C2CCN(C(=O)Nc3c(Cl)cccc3Cl)CC2)cc1` (centres unmarked) [Compound 205] is 398 nM; for `CC(NC(=O)OC(C)(C)C)C(=O)Nc1ccc(C2CCN(C(=O)Nc3c(Cl)cccc3Cl)CC2)cc1` (centres unmarked) [Compound 206] it is 269 nM.

As to `C=CCC(NC(=O)OC(C)(C)C)C(=O)Nc1ccc(C2CCN(C(=O)Nc3c(Cl)cccc3Cl)CC2)cc1` (centres unmarked) [Compound 207], the midpoint of inhibition, the IC50, lay at 209 nM. `CC(C)C(NC(=O)OC(C)(C)C)C(=O)Nc1ccc(C2CCN(C(=O)Nc3c(Cl)cccc3Cl)CC2)cc1` (centres unmarked) [Compound 208] showed an IC50 of 191 nM.

`COCC(NC(=O)OC(C)(C)C)C(=O)Nc1ccc(C2CCN(C(=O)Nc3c(Cl)cccc3Cl)CC2)cc1` (centres unmarked) [Compound 209] showed an IC50 of 166 nM. The figure for `CSCC(NC(=O)OC(C)(C)C)C(=O)Nc1ccc(C2CCN(C(=O)Nc3c(Cl)cccc3Cl)CC2)cc1` (centres unmarked) [Compound 210] is 155 nM.

Take `CC(C)(C)OC(=O)NC(CC#N)C(=O)Nc1ccc(C2CCN(C(=O)Nc3c(Cl)cccc3Cl)CC2)cc1` (centres unmarked) [Compound 211]: the IC50 was 126 nM.

As for `CC(C)(C)OC(=O)NCC(=O)Nc1ccc(C2CCN(C(=O)Nc3c(Cl)cccc3Cl)CC2)cc1` [Compound 212], the half-inhibitory concentration (IC50) was 115 nM. The figure for `CCC(C)C(NC(=O)OC(C)(C)C)C(=O)Nc1ccc(C2CCN(C(=O)Nc3c(Cl)cccc3Cl)CC2)cc1` (centres unmarked) [Compound 213] is 107 nM; for `CC(C)(C)OC(=O)NCCC(=O)Nc1ccc(C2CCN(C(=O)Nc3c(Cl)cccc3Cl)CC2)cc1` [Compound 214] it is 97.7 nM; for `CC(C)C(CC(=O)Nc1ccc(C2CCN(C(=O)Nc3c(Cl)cccc3Cl)CC2)cc1)NC(=O)OC(C)(C)C` (centres unmarked) [Compound 215] it is 58.9 nM. Turning to `CC(C)(C)OC(=O)NC1(C(=O)Nc2ccc(C3CCN(C(=O)Nc4c(Cl)cccc4Cl)CC3)cc2)CCCC1` [Compound 216], the IC50 was 34.7 nM. `C#CCC(NC(=O)OC(C)(C)C)C(=O)Nc1ccc(C2CCN(C(=O)Nc3c(Cl)cccc3Cl)CC2)cc1` (centres unmarked) [Compound 220] gave a half-inhibitory concentration (IC50) of 19.1 nM. As for `O=C(NCc1cccc(N2CCCC2)c1)c1ccc(N2CCN(C(=O)Nc3c(Cl)cc(CN4CCCC4)cc3Cl)CC2)cc1` [Compound 224], the IC50 is 8.32 nM. In the case of `O=C(NCc1cccc(N2CCCC2)c1)c1ccc(N2CCN(C(=O)Nc3c(Cl)cc(CCN4CCCC4)cc3Cl)CC2)cc1` [Compound 227], the half-inhibitory concentration (IC50) was 11.7 nM.

Take `O=C(NCc1ccc2c(c1)OCO2)c1ccc(N2CCN(C(=O)Cc3c(Cl)cccc3Cl)CC2)cc1` [Compound 235]: the half-inhibitory concentration (IC50) is 53.7 nM. The molecule `O=C(NCC12CC3CC(CC(C3)C1)C2)c1ccc(N2CCN(C(=O)Nc3c(Cl)cc(CN4CCCC4)cc3Cl)CC2)cc1` [Compound 243] showed a half-maximal inhibitory concentration (IC50) of 129 nM.

`COc1ccc(CNC(=O)c2ccc(N3CCN(C(=O)Nc4c(Cl)cncc4Cl)CC3)cc2)cc1` [Compound 245] gave a half-inhibitory concentration (IC50) of 145 nM. Molecule `O=C(NCc1cccc(F)c1)c1ccc(N2CCN(C(=O)Cc3c(Cl)cccc3Cl)CC2)cc1` [Compound 247] gave an IC50 of 155 nM. `O=C(NCc1ccccc1F)c1ccc(N2CCN(C(=O)Cc3c(Cl)cccc3Cl)CC2)cc1` [Compound 249] showed an IC50 of 162 nM. `CC(NC(=O)c1ccc(N2CCN(C(=O)Cc3c(Cl)cccc3Cl)CC2)cc1)c1ccc(F)cc1` (centres unmarked) [Compound 250] gave a half-maximal inhibitory concentration (IC50) of 174 nM.

`O=C(NCc1cc(F)cc(F)c1)c1ccc(N2CCN(C(=O)Cc3c(Cl)cccc3Cl)CC2)cc1` [Compound 252] gave an IC50 of 234 nM. In the case of `O=C(NCc1cccc(N2CCCC2)c1)c1ccc(N2CCN(C(=O)Cc3c(Cl)cc(CN4CCCC4)cc3Cl)CC2)cc1` [Compound 267], it took 107 nM to reach half-maximal inhibition (IC50).

`O=C(CCCc1ccccc1)Nc1ccc(N2CCN(C(=O)Nc3c(Cl)cc(CN4CCOCC4)cc3Cl)CC2)cc1` [Compound 269] gave a 50% inhibitory concentration (IC50) of 2.04 nM.

`COCCNC(C)c1cc(Cl)c(NC(=O)N2CCN(c3ccc(NC(=O)CCCc4ccccc4)cc3)CC2)c(Cl)c1` (centres unmarked) [Compound 274] showed an IC50 of 3.98 nM. `COCCN1CCN(C(=O)c2cc(Cl)c(NC(=O)N3CCN(c4ccc(NC(=O)CCCc5ccccc5)cc4)CC3)c(Cl)c2)CC1` [Compound 275] had a concentration for half-maximal inhibition (IC50) of 4.17 nM.

Usually IC50 stands for the concentration that inhibits the measured activity by half. A low value points to greater potency.
